Assay: Hair switch volume-down test (switches dosed, combed straight, dried overnight, imaged)
Procedure: Dark brown European wavy#6 switches of length 25 cm and weight 2 gms (from the same batch of switches), were dosed with 0.2 ml of a 2% solution of monoglucosamine adipate. Control switches were treated with water.
All switches were combed straight and left to dry overnight.
When dry the switches were combed straight and pictures taken. […] The percentage benefit (i.e. decrease in volume) with respect to control (water) is also given.

[1] = 0.2 ml of a 2% solution on 25 cm, 2 gms switches, combed straight, dried overnight

monoglucosamine adipate
% benefit (decrease in volume with respect to control (water)) [1]: 8.0%
Volume (projection of the switch image on to the screen) [1]: 13047 mm^2
hair volume-down benefit (2% solution vs water control, result in words): significant hair volume-down benefit
